Data published in patent US20260216342A1, “COMPOUNDS FOR NUCLEIC ACID CLEAVAGE” (priority 2023, published 2026).

What was measured:
[1] = system: RNA 69-er corresponding to the coronaviral pseudoknot; type: biochemical; conditions: 1 mM, 3 h incubation at 37° C.
[2] = system: RNA extracted from SARS-CoV-2; assay: Gel electrophoresis of SARS-CoV-2 RNA after degrader incubation; type: biochemical; conditions: 100 μM, 2 h at 37° C.; FIG. 5f
SARS-CoV-2 [3] = type: cell-based; conditions: Vero CCL-81, MOI 0.05, 24 h
SARS-CoV-2 [4] = assay: Viral plaque-forming units by plaque assay; type: cell-based; conditions: supernatants of cultures treated with 6 mM for 24 h, vs vehicle control
SARS-CoV-2 [5] = assay: Virucidal activity on cell free virions; conditions: 6 μM, 1 h at 37° C., 1000 PFU, plaque assay
SARS-CoV-2 [6] = type: in vivo, K18-hACE2 transgenic mice; conditions: 10 mg/kg intranasally 1 hour pre-infection and 3 hours post-infection, day 5, plaque assay
G4-forming RNA oligomer = assay: Degradation of G4-forming RNA oligomer by non-covalent PDS-based degraders; type: biochemical; conditions: 200 μM, CuSO4/THPTA/NaAsc, 37° C. for 4 h, LC-MS; FIG. 15
Experimental: […]. The mixture was heated at 95° C. for 5 minutes, then kept on ice for 30 minutes. CuSO4 (final concentration 200 μM), THPTA (700 μM) and NaAsc (50 mM) were then added, alongside with CBX-PDS, PDS-deg6 or PDS-Amlmi (200 μM). The reaction mixture was incubated at 37° C. for 4 h, quenched with EDTA (final concentration 12 mM) and then kept at 4° C. The reaction mixtures were analysed by LC-MS.

E. coli ribosome = assay: In vitro degradation of E. coli ribosome (agarose gel); type: biochemical; conditions: 15 mM to 0.47 mM, 18 hours at 37° C.
Experimental: The degradation activity was measured in an in vitro assay, targeting the E. coli ribosome. 200 μM […] were incubated with degrader in different concentration, ranging from 15 mM to 0.47 mM, for 18 hours at 37° C. Evaluation was made by agarose gel analysis.

Compound: CCOC(=O)c1ccccc1NC(=O)N1CCCN(Cc2csc(C)n2)CC1 [MTDB]
- degradation of RNA pseudoknot [1]: no degradation
- degradation of full-length coronaviral RNA on agarose gel [2]: the two control molecules do not
- antiviral effect (coronaviral RNA in cells) (SARS-CoV-2 [3]; added before or after infection): did not exhibit an antiviral effect
- 50% inhibitory concentration (IC50) (SARS-CoV-2 [3]; drug added 1 h before or 1 h after infection): did not inhibit viral replication and thus IC50 values could not be determined
- number of viral plaques (SARS-CoV-2 [4]): only showed decreased number of viral plaques when added before infection
- virucidal effect on cell free virus (SARS-CoV-2 [5]): no virucidal effect was observed
- lung viral load (SARS-CoV-2 [6]): No differences in lung viral load

Compound: CN(C)Cc1nccn1CCOCCOCCOCCOCCOCCn1cc(COc2cc(C(=O)Nc3cc(OCCN)c4ccccc4n3)nc(C(=O)Nc3cc(OCCN)c4ccccc4n3)c2)nn1 [PDS-Amimi]
- degrader potency on G4-forming RNA oligomer (G4-forming RNA oligomer): more potent degrader than PDS-deg6

Compound: O=C(N[C@H](CO)[C@H](O)c1ccc([N+](=O)[O-])cc1)C(Cl)Cl [chloramphenicol, Chloramphenicol]
- ribosome degradation (E. coli ribosome): no degradation

Compound: chloramphenicol-2PEG-imidazole degrader [18b]
- ribosome degradation (E. coli ribosome): ribosome degradation could be observed at a concentration of 15 mM

Compound: chloramphenicol-6PEG-imidazole degrader [18a]
- ribosome degradation (E. coli ribosome): no degradation visible

Compound: chloramphenicol-ethyl-imidazole degrader [18c]
- ribosome degradation (E. coli ribosome): no degradation visible
